# Measured values: patent US20080206792A1, “Method of identifying compounds useful to treat neuronal degenerative diseases” (University of Iowa Research Foundation, priority 2005, published 2008)
# Where two headings read alike, the source gives them in different places.
# What was measured:
# [1] = tested on: MCF-7 cells; assay: H2HFF-BSA endosomal fluorescence after IL-1β in MCF-7 cells; type: cell-based, human
# Experimental: In vivo localization of redox-active endosomes and ROS production. In vivo localization of superoxides within endosomes was performed using OxyBURST Green H2HFF-BSA (Molecular Probes). Stock solutions (1 mg/ml) were generated immediately prior to use by dissolving H2HFF-BSA in PBS under nitrogen and protected from light. Cells were incubated in the presence of 50 μg/ml OxyBurst Green H2HFF-BSA for 2 minutes at 37° C. and then stimulated by the addition of IL-1β (1 ng/ml). Cells were fixed in 4% paraformaldehyde at various times (1-10 minutes) post-stimulation and evaluated by fluorescent microscopy. Various compounds (1 mg/ml SOD or 10 μM DPI) were added at the time of IL-1β stimulation. Co-localization of H2HFF-BSA and EEA1 was performed by immunofluorescent localization in post-fixed samples using an anti-EEA1 monoclonal antibody (Transduction Laboratories) and a Texas Red-Conjugated Goat Anti-Mouse Antibody (Jackson ImmunoResearch Laboratories). In vivo localization of total cellular ROS (predominantly H2O2) was performed using H2DCFDA (Molecular Probes). […]
# IL-1β induces Nox2 complex activation in early endosomes. […] By incubating cells in the presence of H2HFF-BSA, the endosomal compartment was loaded with this dye and ? detected by a green fluorescence signal. […] These findings confirmed that Nox-derived ? were the major ROS detected by H2HFF-BSA in the endosomal compartment. […]
# [2] = target: T1, NADPH oxidase (Homo sapiens, UniProt P04839); assay: ESR (DMPO adduct) of NADPH-dependent superoxide by IL-1β-activated endosomes; type: biochemical; design: enhanced recruitment of endogenous Nox2 to endosomes only following IL-1β stimulation; endogenous in cells; host or cells: MCF-7 cells, IL-1β-stimulated, iodixanol vesicular fractions; details: endosomal loading prior to vesicular isolation
# [3] = target: T1, NADPH oxidase; assay: Lucigenin assay of NADPH-dependent superoxide production in vesicular fractions of IL-1β-stimulated MCF-7 cells
# Experimental: Cytokine treatments and vesicular isolation. MCF-7 cells were treated with recombinant IL-1β at the indicated concentration for 20 minutes prior to all vesicular isolations. For endosomal loading experiments, purified bovine Cu/ZnSOD (Oxis Research) and/or catalase (Sigma-Aldrich) proteins were added to fresh media (0.1 to 1 mg protein/ml) and applied to cells 10 minutes prior to cytokine treatment in the continued presence of SOD and/or catalase. Cells were washed and scraped into ice-cold PBS. Cell pellets were then resuspended in 0.5 ml of homogenization buffer (0.25 M sucrose, 10 mM triethanolamine, 1 mM EDTA, 1 mM PMSF, and 100 ug/ml aprotinin), homogenized in a Duall tissue grinder (Duall), and centrifuged at 2000×g at 4° C. for 10 minutes. The supernatant was designated the post-nuclear supernatant (PNS). […] The PNS was then bottom loaded under two-step gradients of 24% and 20% Iodixanol in homogenization buffer. Samples were centrifuged at 30,500 rpm for 2 hours at 4° C. Fractions were collected from the top to the bottom of the centrifuge tube at 4° C. (about 300 μl per fraction) and utilized immediately for NADPH oxidase activity and immuno-isolation, or frozen for Western blot analysis.
# NFκB and NADPH oxidase activity assays. […] NADPH oxidase activities were analyzed by measuring the rate of ? generation using a chemiluminescent, lucigenin-based system (Li et al., 2001). Prior to the initiation of the assay, 5 μg of vesicular proteins were combined with 5 μM lucigenin (Sigma-Aldrich) in PBS and incubated in darkness at room temperature for 10 minutes. The reaction was initiated by the addition of 100 μM of NADPH (Sigma-Aldrich) and changes in luminescence were measured over the course of 3 minutes (5 readings/second). The slope of the luminescence curve (relative light units [RLU] per minute) (r>0.95) was used to calculate the rate of ? formation as an index of NADPH oxidase activity (RLU/min μg protein).
# [4] = tested on: Nox; type: biochemical, mouse
# Experimental: Lucigenin chemiluminescence (LCL) assay for NADPH-dependent superoxide (.O2) production. NADPH oxidase activities were analyzed by measuring the rate of ? generation using a chemiluminescent, lucigenin-based system (Li et al., 1998). 5 μM lucigenin in 50 μl of each subcellular fractions was incubated in the dark at room temperature for 15 minutes. LCL was measured using a single-tube Luminometer TD20-20 (Turner Designs Sunnyvale, Calif.). The reaction was initiated by the addition β-NADPH to a final concentration of 100 μM with or without DPI and/or SOD as indicated. LCL was measured over the course of 5 minutes. The initial slope of the luminescence curve (RLU/minute) was used to calculate the rate of luminescence product formation and compared between samples as an index of NADPH oxidase activity.
# [5] = target: Nox2 (Mus musculus, UniProt Q61093); details: PMDF endosomes with purified bovine SOD1
# Source text: Subcellular Fractionation.
# Lucigenin chemiluminescence (LCL) assay for NADPH-dependent superoxide (.O2) production.
# [6] = target: T2, Rac1/SOD1 binding (Homo sapiens, UniProt P63000); assay: In vitro pull-down of His-Rac1-GTPγS with SOD1
# T2 construct: purchased Cytoskeleton Inc. (His-Rac1); Oxis Research (bovine SOD1)
# Experimental: Pull-down assays with GST- and His-tagged proteins. […] The GTPases were either used directly or preloaded with either GTPγS or GDPβS and then washed. […] Samples were incubated at room temperature (RT) for 30 minutes with intermittent gentle agitation. […] The fourth wash was carried out in 50 mM Tris pH 6.8. Proteins were eluted using 20 μl 125 mM imidazole and samples were then mixed with SDS-PAGE reducing loading buffer and separated by SDS-PAGE for Western blotting.
# [7] = tested on: SOD1-G93A mice; assay: Survival and disease progression of G93A-SOD1 transgenic (ALS) mice given apocynin in drinking water; type: in vivo, mouse
# Source text: FIG. 14. […] D) Survival Index is the time between disease onset and clinical death and is a marker of disease progression.
# (§1) FIG. 17. […] A) Survival curve for mice treated with different doses of apocynin in their water beginning at 14 days of age. Number of mice (N) for each treatment group is shown along with median survival times in days. B) Survival data of male and female mice for each given dose of apocynin. Mice treated for eye infections with antibiotics are marked as boxes. Those mice that were unsuccessfully treated and died from eye infections are denoted by an X within the box. Circles denote animals that never contracted eye infection. The number of mice in each group (N) is given above the mean survival in days for each dose of apocynin. C) Relationship between age of disease onset (as determined by a 5% weight loss during a one week period) and apocynin dosage. D) Survival Index was measured as the time from disease onset until the animal reached clinical death for each of the given doses of apocynin. E) NADPH-dependent superoxide production (Nox activity) was measured in total membranes of lumbar spinal cord from end-stage G93A-SOD1 transgenic mice (about 120 days of age) either untreated or treated with apocynin (300 mg/kg) for 5 days prior to analysis (N=5 in each group). F) Dihydroethidium fluorescence in lumbar spinal cord of the same mice shown in (E).
# However, it is currently unclear if other Rac-regulated Nox complexes (such as Nox1 and Nox3) might also contribute to altered ROS production in ALS. To test the therapeutic potential of direct Nox inhibition on the pathoprogression of ALS disease, apocynin in vivo inhibition studies were performed in G93A-ALS mice.
# [8] = tested on: MO59J (glial) cells; assay: NADPH-dependent superoxide production and cell death in glial cells infected with adenovirus expressing mutant SOD1; type: cell-based; details: apocynin 100 μM for 72 hours
# Source text: (§2) FIG. 15. […] A) NADPH-dependent superoxide production in total endomembranes from brain, spinal cord, and liver of non-transgenic or transgenic mice overexpressing WT-SOD1 or G93A-SOD1 (N=3 animals in each group). B) Dihydroethidium (DHE) fluorescent detection of superoxide in lumbar spinal cord sections from 120 day old non-transgenic or transgenic mice overexpressing WT-SOD1 or G93A-SOD1. DAP1 staining demarcates nuclei in lower panels. C, D) Measure of superoxide production (C) or trypan-blue exclusion as a measure of cell death (D) in SH-SY (neuronal) or MO59J (glial) cells infected with adenoviral vectors expressing LacZ, WT-SOD1, or the indicated mutant SOD1. E) Superoxide production and percentage of cell death in SH-SY or MO59J cells following infection with the indicated adenoviral vectors followed by treatment with or without apocynin (100 μM) for 72 hours. F) Rac-GTP activation as determined by association with GST-Pak1 using spinal cord cell lysates from non-transgenic (control) or G93A-SOD1 transgenic mice at 120 days of age. Controls include lysate from control mice incubated with GTPγS (+) or GDPβS (−) prior to performing Pak1 pull-down assays. […]
# [9] = tested on: SH-SY (neuronal) cells; assay: NADPH-dependent superoxide production and cell death in neuronal cells infected with adenovirus expressing mutant SOD1; type: cell-based; details: apocynin 100 μM for 72 hours
# Source text: as §2
# [10] = tested on: NADPH oxidase; assay: Nox activity (lucigenin, DHE) in lumbar spinal cord of end-stage G93A-SOD1 mice after 5 days of apocynin; type: in vivo, mouse; details: terminal stage ALS mice, apocynin 300 mg/kg in water for five days
# Source text: as §1
# [11] = type: in vivo; details: non-ALS mice treated with apocynin
molecule,measurement,setting,value
Cu/ZnSOD: purified bovine Cu/ZnSOD (Oxis Research) added to media for endosomal loading,IL-1β-induced H2HFF-BSA fluorescence,"[1]; purified Cu/ZnSOD protein loaded into endosomal compartment, 1 mg/ml",significantly inhibited
same,DMPO adduct formation (ESR),[2],completely inhibited
C=C(C)[C@H]1Cc2c(ccc3c2O[C@@H]2COc4cc(OC)c(OC)cc4[C@@H]2C3=O)O1 [rotenone],NADPH-dependent superoxide production in peak vesicular fractions,[3]; IL-1β-stimulated MCF-7 cells,not
"c1ccc2c(c1)[I+]c1ccccc1-2 [DPI, diphenyleneiodonium chloride]",NADPH-dependent superoxide production,[4],inhibited
same,SOD1-mediated enhancement in endosomal NADPH-dependent superoxide,[5],sensitive
same,IL-1β-induced H2HFF-BSA fluorescence,[1]; 10 μM DPI added at IL-1β stimulation,significantly inhibited
same,NADPH-dependent superoxide production in peak vesicular fractions,[3],sensitive
catalase,DMPO adduct formation (ESR),[2],not
"OO [H2O2, hydrogen peroxide]",Lowest H2O2 concentration causing a significant decrease in the binding affinity of Rac1 for SOD1,"[6]; Rac1 reduced with DTT, preloaded with GTPγS",50 pM
"COc1cc(C(C)=O)ccc1O [apocynin, 4-Hydroxy-3-methoxyacetophenone]",Number of motor neurons in the lumbar spinal cord,"[7]; 300 mg/kg, at 120 days",significantly increased
same,Probability of survival,"[7]; SOD1-G93A mice, apocynin 30 mg/Kg, nontreated 125 days, p<0.0001",185 days
same,Gait analysis,"[7]; apocynin 30 mg/Kg, at 114 days of age, untreated mice impaired gait",normal gait
same,Survival Index (time between disease onset and clinical death),"[7]; apocynin 30 mg/Kg, n=6, untreated 11 days",32 days
same,"Survival of G93A-SOD1 mice, dose dependence",[7]; apocynin in drinking water from 2 weeks of age,prolonged survival of G93A-SOD1 mice in a dose-dependent fashion
same,Average age of disease onset,"[7]; first observation of hind limb weakness, apocynin 30 mg/Kg, n=6, untreated 117.5 days",156.5 days
same,50% survival time,"[7]; highest dose 300 mg/kg in drinking water from 2 weeks of age, increased from 125 days",239 days
same,Life expectancy and disease onset,[7]; lowest tested dose,prolong life expectancy and delay disease onset
same,Age of onset of disease and survival index versus dose,[7]; onset judged by 5% weight loss and gait,clear dose response
same,Cell viability,[8],increase in cell viability
same,SOD1 mutant facilitated NADPH-dependent superoxide production,[8],abrogated
same,Nox activity,[9],could not inhibit
same,Protection from mutant SOD1-mediated cellular injury,[9],nor did it protect
same,"Nox-derived superoxide production in vivo (spinal cord, lucigenin and DHE assays)",[10],effectively inhibited
same,Eye disease,[11],did not develop eye disease
"O[C@H](CS)[C@H](O)CS (racemic) [DTT, dithiothreitol]",DTT concentration reversing H2O2-mediated inhibition of Rac1/SOD1 binding,[6]; Rac1 oxidized with 300 pM H2O2,50 to 300 µM
antimycin A,NADPH-dependent superoxide production in peak vesicular fractions,[3]; IL-1β-stimulated MCF-7 cells,not
